Measured values reported in patent publication US11518742B2 (priority 2020, dated 2022).

What was measured:
[1] = Maximum tolerated dose followed by 7-day repeat-dose toxicology in dogs (Study 62958); assay type: in vivo, dog; conditions: both sexes, dog, in vivo, inhaled or intranasal; intranasal instillation
Protocol: (§1) In support of these objectives, the study consisted of 2 individual phases.
(§2) The test item was administered once by intranasal instillation to one male and female dog for up to 5 dose levels until the highest tolerable dose (MTD) was determined as described in Table 11.
(§3) During Phase 2, assessments of mortality, clinical signs, body weights and food consumption were performed. […] Following the last dosing, all animals were euthanized and subjected to a necropsy examination on Day 8. The necropsy consisted of an external examination; including reference to all clinically-recorded lesions, as well as a detailed internal examination. Study plan specific tissues/organs were collected and preserved following necropsy but were not further examined microscopically.

dogs = experiment: as above; assay type: in vivo, dog
Protocol: as §1, §2, §3

[2] = 14-day repeat-dose intranasal toxicity study with 14-day recovery in rats (Study 700041); assay type: in vivo, rat; conditions: both sexes, Sprague Dawley, in vivo, inhaled or intranasal; 14-day intranasal, rat
Protocol: (§4) The animals were monitored for mortality, clinical signs, respiratory measurements, body weights, food consumption, and body temperature. Ophthalmoscopic examinations and respiratory function tests were performed on all animals at scheduled timepoints. Clinical pathology assessments (hematology, coagulation, clinical chemistry, and urinalysis) were evaluated at termination. […] Following dosing, the Main animals were euthanized and subjected to a complete necropsy examination on Day 15. […] TK animals were euthanized after the last blood collection and discarded without further examination. At terminal euthanasia, selected tissues/organs were weighed, and microscopic evaluations of a standard set of tissues including the nasal turbinates (4 sections) and brain (7 sections) were performed for all Main and Recovery study animals.
(§5) Following dosing, animals in the Main group were euthanized and subjected to a necropsy examination on Day 15. […] For toxicokinetics, a series of 8 blood samples (approximately 0.5 mL each) were collected from all rats in the Toxicokinetic group (3 rats/sex/timepoint) on Days 1 and 14 of the treatment period at 2, 5, 10, 15 and 30 minutes, and 1.0, 3.0 and 8 hours after treatment. For control rats (3 rats/sex) in the Toxicokinetic group only 1 sample was collected at the 15 minutes post dosing timepoint on Days 1 and 14.
(§6) Toxicity was based on the following parameters monitored: mortality/morbidity, clinical observations, body weights/gains, food consumption, ophthalmoscopy, clinical pathology (hematology, coagulation, chemistry, and urinalysis), necropsy observations, selected organ weights, and microscopic examination of a complete set of standard tissues including 4 cross levels of the nasal cavity and 7 sections of the brain.

Sprague Dawley rats = experiment: as above; assay type: in vivo, rat; conditions: for Thymus Mean Absolute Weight, percentage compared to the control value: males; for Clinical signs: male and female
Protocol: as §4, §5, §6

[3] = 14-day repeat-dose intranasal toxicity study with 14-day recovery in dogs (Study 62959); assay type: in vivo, dog; conditions: both sexes, Beagle, dog, in vivo, inhaled or intranasal; 14 consecutive days intranasal, 14-day recovery
Protocol: (§7) Assessments of mortality, clinical signs, olfactory reflex, body weights, food consumption, ophthalmology, and electrocardiograms were performed. In addition, clinical pathology assessments (hematology, coagulation, clinical chemistry and urinalysis) were evaluated once pretreatment and at termination. Blood samples were collected from the jugular vein of all animals on Days 1 and 14, at up to 8 time points relative to treatment, for analysis of test item concentration in plasma and the subsequent calculation of toxicokinetic parameters. Following dosing, the Main animals were euthanized and subjected to a complete necropsy examination on Day 15. […] All Main and Recovery study animals underwent complete necropsy examinations, selected tissues/organs were retained, and microscopic evaluations of a standard set of tissues were performed.

Beagle dogs = experiment: as above; assay type: in vivo, dog
Protocol: as §7

In the case of `COc1ccc2[nH]cc(CCN(C)C)c2c1` [BPL-5MEO, 5-methoxy-N,N-dimethyltryptamine], the MTD [1] is reported as 2.5 mg/kg, the Mortality and bodyweights (dogs; dose escalation phase, 2 to 5 mg/kg) is reported as “no BPL-5MEO-related effects on mortality or bodyweights” and the “Duration of convulsion in the male animal” value (dogs; last escalating dose 3.5 mg/kg/day) is reported as 8 min. For the same compound, the NOAEL at 14 days [2] was 5 mg/kg, the “Effect on reproductive tissues” value (Sprague Dawley rats; 14-day pivotal GLP intranasal toxicity study, rats) was “no evidence of an adverse effect on reproductive tissues” and the Respiratory rates (Sprague Dawley rats; 20 minutes post dose) was “Decreases in respiratory rates”. The “Thymus Mean Absolute Weight, percentage compared to the control value” (shortened to “Thymus Mean Absolute Weight, percentage”) (Sprague Dawley rats; Group 2 (5 mg/kg/day)) was −4%, the Clinical signs (Sprague Dawley rats; Group 2 (Low Dose) 5 mg/kg/day) was “incoordination, shaking, salivation, decreased activity, lying on cage floor and sensitive to touch” and the “Thymus Mean Absolute Weight, percentage” value (Sprague Dawley rats; Group 3 (20 mg/kg/day)) was 18%. For the same compound, the Clinical signs (Sprague Dawley rats; Group 3 (Mid Dose) 20 mg/kg/day) was “incoordination, shaking (or tremor), increased or shallow respiration, mydriasis, salivation, decreased activity, partially closed eyes, lying on cage floor and sensitive to touch”, the “Thymus Mean Absolute Weight, percentage” value (Sprague Dawley rats; Group 4 (75 mg/kg/day)) was −31% and the Clinical signs (Sprague Dawley rats; Group 4 (High Dose) 75 mg/kg/day) was “incoordination, shaking (or tremor), increased or shallow respiration, mydriasis, salivation, decreased activity, partially closed eyes, lying on cage floor and sensitive to touch”. For the same compound, the “Microscopic findings, epithelium of nasal cavities 1-4” value (Sprague Dawley rats; Main animals, proportional to dose, greater in males) was “minimal to mild changes”, the “Reversibility of nasal microscopic findings” value (Sprague Dawley rats; after 14-day recovery period) was “incomplete but progressive ongoing reversal of epithelial degeneration” and the Body temperature (Sprague Dawley rats; both sexes) was “Slight dose dependent body temperature increases”. For the same compound, the Body weight gain (Sprague Dawley rats; both sexes, Days 1 to 14) was “Slight dose-dependent body weight gain suppression”, the Ocular effect (Sprague Dawley rats; dose levels 75 mg/kg/day for 14 days) was “no adverse ocular effect” and the “Activated partial thromboplastin time (APTT)” value (Sprague Dawley rats; mid (20 mg/kg/day) and high (75 mg/kg/day) dose groups, both sexes) was “APTT were increased”. The Hematology (Sprague Dawley rats; mid and high dose groups, both sexes) was “Platelet, neutrophil, monocyte and basophil counts were slightly increased”, the Overall tolerability (Sprague Dawley rats; ≤75 mg/kg/day for 14 consecutive days) was “tolerated with no BPL-5MEO-related effects on mortality, ophthalmology, clinical chemistry, macroscopic findings and urinalysis” and the NOAEL at 14 days [3] was 1.5 mg/kg/day. For the same compound, the “Effect on reproductive tissues” value (Beagle dogs; 14-day pivotal GLP intranasal toxicity study, dogs) was “no evidence of an adverse effect on reproductive tissues”, the “Triglyceride (mmol/L), Mean ± SD Day 14” value (Beagle dogs; Group 2, 0.4 mg/kg/day, Females) was 0.46 ± 0.61 mmol/L and the “Triglyceride (mmol/L), Mean ± SD Day 14” value (Beagle dogs; Group 2, 0.4 mg/kg/day, Males) was 0.40 ± 0.11 mmol/L. The “Triglyceride (mmol/L), Mean ± SD Day 14” value (Beagle dogs; Group 3, 0.8 mg/kg/day, Females) was 0.47 ± 0.22 mmol/L, the “Triglyceride (mmol/L), Mean ± SD Day 14” value (Beagle dogs; Group 3, 0.8 mg/kg/day, Males) was 0.44 ± 0.07 mmol/L and the “Time to resolution of clinical signs” value (Beagle dogs; all treated groups) was ≤ 90 min. The Transient clinical observations (Beagle dogs; animals in all treated groups) was “incoordination, vocalization, mydriasis, decreased or increased activity, increased respiration, gnawing cage wire, excessive licking of nose or lips and circling”.
